Data on 20 molecules can be found in patent US4681699A, “Bisazo dyes and their use in liquid crystalline materials” (BASF Aktiengesellschaft, priority 1984, dated 1987).

The nature of data set [1]: Solubility L of dye in liquid crystal mixture at room temperature (saturated solution, comparison of extinctions). Type of data set: physicochemical. How it is done: (§1) The degree of order S measured at room temperature, the solubility L likewise determined at room temperature, and the Merck liquid crystal mixtures used are summarized in Table 1 for Examples 1, 4, 5, 8, 12, 15 and 18.
(§2) The values for the degree of order and the solubility which have been measured at room temperature in ZLI 2452 are summarized in Table 2 for some of the Examples 19-46.
The solubility was determined as described below. 50 mg of the particular dye was stirred for 1 week at room temperature in 1 ml of liquid crystal, the saturated solution was centrifuged off from the residue, and the solubility was determined by comparison of extinctions.

A short description of data set [2]: Degree of order S of dye in nematic liquid crystal mixture (dichroic ratio CR, homogeneously oriented measuring cell). Type of data set: physicochemical. The method, then:
as §1, §2
The degree of order S was determined on the basis of the known equation [formula] in a commercial measuring cell with a homogeneous orientation (polyimide).The dichroic ratio CR was determined by measuring the extinctions E^.parallel. (measured with light polarized parallel to the preferred direction of the nematic phase) and E^.perp. (measured with light polarized perpendicular to the preferred direction of the nematic phase) and using the relationship CR=E^.parallel. /E^.perp., the dye concentrations being chosen so that E^.parallel. was from 1 to 2. The measurements were carried out using an Acta CIII spectrophotometer from Beckmann.

Where [3] appears, read: liquid crystal mixture ZLI 1957/5.
[4] abbreviates: liquid crystal mixture ZLI 1840.
The mark [5] stands for this setting: liquid crystal mixture ZLI 2452 (Table 1).
Setting [6] is: liquid crystal mixture ZLI 2585.

For `CCCCCCCCSc1nsc(N=Nc2ccc(N=Nc3ccc(N(C)CCCC)cc3)cc2)n1` [Example 1], in data set [1] (setting [3]), the “Solubility L (at room temperature)” value is given as 1.5%. For the same molecule, the “Degree of order S (at room temperature)” value in data set [2] (setting [3]) was 0.72.
Take `CCCCSc1nsc(N=Nc2cc(C)c(N=Nc3ccc(N(C)C)cc3C)cc2C)n1` [Example 4]: in data set [1] (setting [4]), the “Solubility L (at room temperature)” value is 0.9%. Besides, the “Degree of order S (at room temperature)” value in data set [2] (setting [4]) was found to be 0.73.
On the same counts, the results for `Cc1cc(N=Nc2ccc(N(C)C)cc2C)c(C)cc1N=Nc1nc(SCc2ccccc2)ns1` [Example 5] are 0.3% and 0.74.
Consider `CCCCCCCCSc1nsc(N=Nc2cc(C)c(N=Nc3ccc(N(C)C)cc3C)cc2C)n1` [Example 8], for which, in data set [1] (setting [3]), the “Solubility L (at room temperature)” value was 1.5%. Also, the “Degree of order S (at room temperature)” value worked out at 0.73 in data set [2] (setting [3]) and 0.76 in data set [2] (setting [5]).
As for `CCNc1ccc(N=Nc2cc(C)c(N=Nc3nc(SC)ns3)cc2C)c2ccccc12` [Example 12], the “Solubility L (at room temperature)” value in data set [1] (setting [4]) is reported as 0.7%. Further, the “Degree of order S (at room temperature)” value in data set [2] (setting [4]) came to 0.72.
In the case of `CCCCCCCCSc1nsc(N=Nc2cc(C)c(N=Nc3ccc(NCc4ccc(C5CCC(CCCC)CC5)cc4)c4ccccc34)cc2C)n1` (stereo not drawn) [Example 15], the “Solubility L (at room temperature)” value in data set [1] (setting [3]) was determined as 1.4%; in data set [1] (setting [5]), 2.8%; in data set [1] (setting [6]), 2.8%. The “Degree of order S (at room temperature)” value in data set [2] (setting [3]) worked out at 0.77; in data set [2] (setting [5]), 0.81; in data set [2] (setting [6]), 0.74.
As to `CCCCCCCCSc1nsc(N=Nc2ccc(N=Nc3ccc(NCc4ccc(C5CCC(CCCC)CC5)cc4)c4ccccc34)cc2)n1` (stereo not drawn) [Example 18], the “Solubility L (at room temperature)” value in data set [1] (setting [3]) came to 0.9%. In data set [2] (setting [3]), the “Degree of order S (at room temperature)” value worked out at 0.79.
Turning to `CCCCCCCCNc1ccc(N=Nc2cc(C)c(N=Nc3nc(SCCCCCCCC)ns3)cc2C)c2ccc(C)nc12` [Example 19], in data set [1] (ZLI 2452 (Table 2)), the “Solubility L (at room temperature)” value is listed as 0.6%. In addition, the “Degree of order S (at room temperature)” value in data set [2] (ZLI 2452 (Table 2)) is on record as 0.75.
On the same counts, the results for `CCCCCCCCCCCCN(C)c1ccc(N=Nc2cc(C)c(N=Nc3nc(CCCCCCC)ns3)cc2C)c2ccccc12` [Example 22] are 1.7% and 0.77.
The corresponding values for `CCCCCCCCCCCCNc1ccc(N=Nc2cc(C)c(N=Nc3nc(SC)ns3)cc2C)c2ccccc12` [Example 26] are 1.3% and 0.76.
On the same counts, the results for `CCCCCCCCCCCCNc1ccc(N=Nc2cc(C)c(N=Nc3nc(SCCCCCCC)ns3)cc2C)c2ccccc12` [Example 35] are 0.6% and 0.79.
On to `CCCCCCCCNc1ccc(N=Nc2cc(C)c(N=Nc3nc(SCCCCCCCC)ns3)cc2C)c2ccccc12` [Example 36], for which the “Solubility L (at room temperature)” value in data set [1] (ZLI 2452 (Table 2)) is recorded as 0.8%. The “Degree of order S (at room temperature)” value in data set [2] (ZLI 2452 (Table 2)) worked out at 0.77.
The corresponding values for `CCCCC(CC)CSc1nsc(N=Nc2cc(C)c(N=Nc3ccc(NCC)c4ccccc34)cc2C)n1` (stereo not drawn) [Example 38] are greater than 5% and 0.74.
On the same counts, the results for `CCCCCCCCCCCCNc1ccc(N=Nc2cc(C)c(N=Nc3nc(SCCCCCCCCCCCC)ns3)cc2C)c2ccccc12` [Example 40] are 1.2% and 0.77.
For `CCCCCCCCSc1nsc(N=Nc2cc(C)c(N=Nc3ccc(NCCc4ccccc4)c4ccccc34)cc2C)n1` [Example 41], in data set [1] (ZLI 2452 (Table 2)), the “Solubility L (at room temperature)” value came out at 0.6%. In data set [2] (ZLI 2452 (Table 2)), the “Degree of order S (at room temperature)” value came to 0.74.
As for `CCCCCCCCSc1nsc(N=Nc2cc(C)c(N=Nc3ccc(NCc4ccc(CCCCC)cc4)c4ccccc34)cc2C)n1` [Example 42], the “Solubility L (at room temperature)” value in data set [1] (ZLI 2452 (Table 2)) is 0.4%. Besides, the “Degree of order S (at room temperature)” value in data set [2] (ZLI 2452 (Table 2)) worked out at 0.80.
On the same counts, the results for `CCCCCCCCSc1nsc(N=Nc2cc(C)c(N=Nc3ccc(Nc4ccc(CCCC)cc4)c4ccccc34)cc2C)n1` [Example 43] are 3.2% and 0.71.
The corresponding values for `CCCCC1CCC(c2ccc(CNc3ccc(N=Nc4ccc(N=Nc5nc(SCC(CC)CCCC)ns5)cc4)c4ccccc34)cc2)CC1` (stereo not drawn) [Example 44] are 2.6% and 0.81.
On the same counts, the results for `CCCCC1CCC(c2ccc(CNc3ccc(N=Nc4ccc(N=Nc5nc(SCC(CC)CCCC)ns5)c(C)c4)c4ccccc34)cc2)CC1` (stereo not drawn) [Example 45] are 2.4% and 0.81.
For the molecule `CCCCC1CCC(c2ccc(CNc3ccc(N=Nc4cc(C)c(N=Nc5nc(SCC(CC)CCCC)ns5)cc4C)c4ccccc34)cc2)CC1` (stereo not drawn) [Example 46], the “Solubility L (at room temperature)” value in data set [1] (ZLI 2452 (Table 2)) is listed as 0.8%. Further, the “Degree of order S (at room temperature)” value in data set [2] (ZLI 2452 (Table 2)) is given as 0.80.
